The record followed here is ChEMBL document CHEMBL1201862, “PubChem BioAssay data set” (2004).

Some test systems named below: T47D; CAKI-1; HL-60; SR; EKVX; U-251; HCT-116; M14; OVCAR-4; HT-29; CCRF-CEM; SK-OV-3; HOP-92; 786-0; Malme-3M; SNB-75; UACC-62; IGROV-1; SNB-19; SK-MEL-5.
What all share (assay): inhibition of tumour cell growth, NCI panel, 48 h

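Growth conditions: 96-well plates. Treatment: test compound, 48 hours, 5 concentrations. Analysis: linear interpolation between bracketing concentrations; unreached endpoints set to highest concentration. Here, GI50 denotes the concentration required for 50% inhibition of growth.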 Active and inactive are the calls of the source. Rule as the data show it: active = GI50 up to about 1.1 µM and inactive = higher.

For the compound `COc1ccc(-c2cc3ccccc3oc2=O)cc1OC`, the GI50 in the assay on T47D, in the assay on CAKI-1, with HL-60, in the assay with SR, in the assay with EKVX and in the assay with U-251 was > 100 µM (inactive) throughout. Moreover, the GI50 in the assay with HCT-116 is > 100 µM (inactive); with M14, > 100 µM (inactive); with OVCAR-4, > 100 µM (inactive); in the assay on HT-29, > 100 µM (inactive); in the assay with CCRF-CEM it was > 100 µM (inactive); with SK-OV-3 it was 20.3 µM (inactive). The GI50 in the assay with HOP-92 is > 100 µM (inactive); with 786-0, 70 µM (inactive); in the assay with Malme-3M it was > 100 µM (inactive); in the assay with SNB-75, 60.3 µM (inactive); in the assay with UACC-62, > 100 µM (inactive); with IGROV-1, > 100 µM (inactive). Further, the GI50 in the assay with SNB-19 is 90.6 µM (inactive); with SK-MEL-5 it was 81.5 µM (inactive).
As for `CC(=O)c1ccc2c(c1)CC1(C2)Cc2cc3c(cc2C1)C(=O)CC3` (stereo not given), the GI50 is 3.33 µM (inactive) in the assay on T47D; 2.03 µM (inactive) in the assay on CAKI-1; 0.76 µM (active) in the assay with HL-60; 0.322 µM (active) in the assay on SR; 6 µM (inactive) in the assay on EKVX; 1.8 µM (inactive) in the assay with U-251. The GI50 is 2.1 µM (inactive) in the assay with HCT-116; 2 µM (inactive) in the assay with M14; 2.55 µM (inactive) in the assay on OVCAR-4; 1.07 µM (active) with HT-29; 0.65 µM (active) in the assay with CCRF-CEM; 0.723 µM (active) in the assay on SK-OV-3. Further, the GI50 in the assay with HOP-92 is 4.21 µM (inactive); in the assay with 786-0, 3.64 µM (inactive); in the assay on Malme-3M it was 1.35 µM (inactive); in the assay on SNB-75, 32 µM (inactive); in the assay on UACC-62, 3.29 µM (inactive); in the assay with IGROV-1, 2.67 µM (inactive). The GI50 with SNB-19 is 1.67 µM (inactive); with SK-MEL-5, 0.608 µM (active).
Regarding `COc1ccc(/C=C/C=C2C(=O)NC(=S)NC2=O)cc1`, the GI50 in the assay on T47D was 34.9 µM (inactive); in the assay on CAKI-1, 9.95 µM (inactive); in the assay on HL-60, 0.805 µM (active); with SR, 1.35 µM (inactive); with EKVX, 8.91 µM (inactive); in the assay on U-251, 2.16 µM (inactive). For the same compound, the GI50 in the assay on HCT-116 was 4.7 µM (inactive); in the assay with M14 it was 10.1 µM (inactive); with OVCAR-4, 31.2 µM (inactive); in the assay with HT-29 it was 5.77 µM (inactive); with CCRF-CEM, 1.59 µM (inactive); with SK-OV-3, 17.7 µM (inactive). The GI50 with HOP-92 was 12.8 µM (inactive); in the assay on 786-0, 2.35 µM (inactive); in the assay with Malme-3M, 3.34 µM (inactive); with SNB-75 it was 17.7 µM (inactive); in the assay with UACC-62 it was 3.07 µM (inactive); with IGROV-1 it was 3.91 µM (inactive). Further, the GI50 in the assay on SNB-19 is 7.59 µM (inactive); in the assay on SK-MEL-5, 13.3 µM (inactive).
As for `CNC(=S)N/N=C/c1ccc([N+](=O)[O-])s1`, the GI50 is > 10 µM (inactive) in the assay on T47D; > 10 µM (inactive) in the assay with CAKI-1; 6.44 µM (inactive) with HL-60; 4.81 µM (inactive) with SR; > 10 µM (inactive) in the assay on EKVX; > 10 µM (inactive) with U-251. Also, the GI50 was 5.48 µM (inactive) in the assay on HCT-116; > 10 µM (inactive) in the assay on M14; > 10 µM (inactive) in the assay with OVCAR-4; 3.13 µM (inactive) in the assay on HT-29; > 10 µM (inactive) in the assay with CCRF-CEM; > 10 µM (inactive) with SK-OV-3. Besides, the GI50 in the assay on HOP-92 was > 10 µM (inactive); with 786-0, > 10 µM (inactive); with Malme-3M it was 7.53 µM (inactive); with SNB-75, > 10 µM (inactive); with UACC-62 it was > 10 µM (inactive); in the assay on IGROV-1, > 10 µM (inactive). The GI50 with SNB-19 and in the assay with SK-MEL-5 was > 10 µM (inactive) throughout.
As for `CN(C)CCCN1c2ccccc2Sc2cnccc21`, the GI50 with T47D was > 100 µM (inactive); with CAKI-1 it was 63.1 µM (inactive); in the assay on HL-60, 74 µM (inactive); in the assay on SR, 34.2 µM (inactive); in the assay on EKVX, > 100 µM (inactive); in the assay with U-251, > 100 µM (inactive). The GI50 was 43.7 µM (inactive) in the assay with HCT-116; 52.2 µM (inactive) with M14; 93.8 µM (inactive) in the assay with OVCAR-4; 58.6 µM (inactive) with HT-29; 93.5 µM (inactive) with CCRF-CEM; > 100 µM (inactive) in the assay with SK-OV-3. Moreover, the GI50 in the assay with HOP-92 was 61 µM (inactive); with 786-0, 77.1 µM (inactive); with Malme-3M it was > 100 µM (inactive); in the assay with SNB-75 it was > 100 µM (inactive); with UACC-62 it was 38.5 µM (inactive); in the assay on IGROV-1, > 100 µM (inactive). Also, the GI50 in the assay on SNB-19 was > 100 µM (inactive); with SK-MEL-5, 79.8 µM (inactive).
Take `CCCCCCCCCC[C@@H](O)[C@H]1CC[C@H]([C@H]2CC[C@H]([C@H](O)CCCCCCCCCC[C@@H]3CC(CC(C)=O)C(=O)O3)O2)O1` (stereo not given in full): the GI50 is > 17.2 µM (inactive) with T47D; > 47.1 µM (inactive) in the assay on CAKI-1; 5.61 µM (inactive) in the assay on HL-60; 0.562 µM (active) in the assay with SR; 7.43 µM (inactive) in the assay on EKVX; > 50 µM (inactive) in the assay on U-251. Further, the GI50 in the assay on HCT-116 was 0.112 µM (active); in the assay on M14, 26.3 µM (inactive); with OVCAR-4, 28.7 µM (inactive); in the assay with HT-29, 4.41 µM (inactive); in the assay on CCRF-CEM it was 9.23 µM (inactive); in the assay on SK-OV-3, 31.8 µM (inactive). Besides, the GI50 was > 50 µM (inactive) with HOP-92; 23.2 µM (inactive) in the assay with 786-0; 16 µM (inactive) with Malme-3M; > 50 µM (inactive) in the assay with SNB-75; 1.11 µM (active) with UACC-62; > 34.4 µM (inactive) with IGROV-1. The figures for the GI50 in the assay with SNB-19 and in the assay with SK-MEL-5 were > 47.3 µM (inactive) and 0.0929 µM (active), respectively.
For `C=C1CC(Cn2cc(C)c(=O)[nH]c2=O)(c2ccc(Cl)cc2)OC1=O` (stereo not given), the GI50 in the assay with T47D was 2.08 µM (inactive); in the assay with CAKI-1, 1.83 µM (inactive); with HL-60 it was 0.863 µM (active); in the assay on SR, 1.17 µM (inactive); in the assay with EKVX, 11.9 µM (inactive); in the assay on U-251 it was 16.2 µM (inactive). In addition, the GI50 in the assay with HCT-116 is 1.65 µM (inactive); in the assay on M14, 1.22 µM (inactive); in the assay on OVCAR-4 it was 1.72 µM (inactive); in the assay on HT-29 it was 1.69 µM (inactive); with CCRF-CEM, 0.855 µM (active); in the assay on SK-OV-3 it was 14.9 µM (inactive). The GI50 is 0.438 µM (active) in the assay with HOP-92; 1.56 µM (inactive) in the assay with 786-0; 1.88 µM (inactive) in the assay on Malme-3M; 10.7 µM (inactive) with SNB-75; 2.44 µM (inactive) with UACC-62; 1.53 µM (inactive) in the assay on IGROV-1. Besides, the GI50 with SNB-19 is 23.1 µM (inactive); in the assay with SK-MEL-5, 2.67 µM (inactive).
As to `COc1cc2oc3cc(=O)cc4oc(-c5ccccc5)cc(c2c2c1CCC(c1ccccc1)O2)c43` (stereo not given), the GI50 is 17.7 µM (inactive) in the assay with T47D; 15.7 µM (inactive) in the assay with CAKI-1; 25 µM (inactive) with HL-60; 11.1 µM (inactive) in the assay with SR; 65.6 µM (inactive) with EKVX; 43.1 µM (inactive) in the assay with U-251. For the same compound, the GI50 is 29.2 µM (inactive) with HCT-116; 17.4 µM (inactive) with M14; > 100 µM (inactive) in the assay on OVCAR-4; 20.9 µM (inactive) in the assay with HT-29; 61 µM (inactive) in the assay with CCRF-CEM; 35 µM (inactive) in the assay on SK-OV-3. Further, the GI50 in the assay on HOP-92 is > 100 µM (inactive); in the assay on 786-0, 48.2 µM (inactive); in the assay on Malme-3M it was 67.3 µM (inactive); in the assay on SNB-75, 79.1 µM (inactive); with UACC-62, 35.1 µM (inactive); in the assay on IGROV-1, 33.1 µM (inactive). For the same compound, the GI50 in the assay on SNB-19 was 63 µM (inactive); with SK-MEL-5 it was 20.4 µM (inactive).
On to `Cc1cc(/N=C/c2ccc(C#N)cc2)n(-c2ccccc2)n1`, for which the GI50 in the assay on T47D is 48.9 µM (inactive); in the assay on CAKI-1, > 100 µM (inactive); with HL-60 it was 20.1 µM (inactive); in the assay on SR, 35.5 µM (inactive); in the assay with EKVX, 94.8 µM (inactive); in the assay with U-251 it was 71.6 µM (inactive). The GI50 in the assay with HCT-116 was 49.1 µM (inactive); with M14, 55.7 µM (inactive); in the assay on OVCAR-4, > 100 µM (inactive); with HT-29, 47.8 µM (inactive); with CCRF-CEM, 30.8 µM (inactive); in the assay on SK-OV-3, 51.3 µM (inactive). Further, the GI50 is > 100 µM (inactive) in the assay with HOP-92; 80.5 µM (inactive) in the assay with 786-0; > 100 µM (inactive) in the assay on Malme-3M; 57 µM (inactive) with SNB-75; 80.4 µM (inactive) with UACC-62; 68.9 µM (inactive) in the assay with IGROV-1. Further, the GI50 in the assay with SNB-19 was 65.8 µM (inactive); in the assay on SK-MEL-5, 36 µM (inactive).
Consider `Nc1[nH]c(Nc2ccc(Cl)c(Cl)c2)nc2ncnc1-2`, for which the GI50 with T47D was 8.55 µM (inactive); in the assay with CAKI-1 it was 10.8 µM (inactive); in the assay with HL-60 it was 6.67 µM (inactive); in the assay on SR, 11 µM (inactive); with EKVX, 1.98 µM (inactive); in the assay with U-251, 15.2 µM (inactive). Also, the GI50 with HCT-116 is 15.1 µM (inactive); in the assay with M14 it was 16 µM (inactive); with OVCAR-4 it was 20.3 µM (inactive); in the assay with HT-29, 14.7 µM (inactive); in the assay on CCRF-CEM it was 16.1 µM (inactive); in the assay on SK-OV-3 it was 15.3 µM (inactive). In addition, the GI50 is 16.6 µM (inactive) with HOP-92; 15.7 µM (inactive) with 786-0; 18.2 µM (inactive) with Malme-3M; 8.36 µM (inactive) in the assay with SNB-75; 11.9 µM (inactive) in the assay with UACC-62; 4.76 µM (inactive) with IGROV-1. Besides, the GI50 was 14.1 µM (inactive) with SNB-19 and 14.6 µM (inactive) with SK-MEL-5.
